Starred links: 1 amine or outer side, 2 acyl side, 3 side chain; linkers in the order of their positions; H or OH if unused. Positions of bridges follow the written chain, without caps; N, C: chain ends. Residues, ends and D or L forms follow the SMILES beside them. Chains are numbered I, II in the order given. Rhodamine110 = O=C1OC2(c3ccc(N[*:1])cc3Oc3cc(N[*:2])ccc32)c2ccccc21
What was measured:
Caspase 3/7 = test: Detection of apoptosis / caspase 3/7 activities in Jurkat cells, whole cell assay; format: cell-based; details: staurosporine 0.5 μg/ml 2 hours, 50 μM substrate 2 hours at 37° C., Ex/Em=540/620 nm
Protocol: FIG. 3. Illustrates the detection of Caspase 3/7 activities in Jurkat cells with Compound 4. Jurkat cells are seeded on the same day at 200,000 cells/90 μL/well in a Costar black wall/clear bottom 96-well plate. The cells are treated with or without 1 μM of staurosporine for 5 hours. The caspase 3/7 working solution (100 μL/well) are added and incubated at room temperature for 1 hour. The fluorescence intensity is measured at Ex/Em=540/620 nm (Cutoff=610 nm) with FlexStation fluorescence microplate reader.
Jurkat T leukemia cells are grown in RPMI 1640 media (Life Technologies, Inc.) and 10% FCS (Sigma Chemical Company) in a 5% CO2-95% humidity incubator at 37° C., and maintained at a cell density between 4 and 8×10^5 cells/ml. Cells were harvested at 200×g and resuspended at 1×10^6 cells/ml into RPMI 1640 media containing 10% FCS and 1 ml each were dispensed in 2-wells of a 6-well plate. The apoptosis inducer staurosporine is added at 0.5 μg/ml concentration and the plate is incubated for 2 hours at 37° C. in a 5% CO2-95% humidity incubator. Cells are incubated with 50 μM of substrate Compound 4 for 2 hours at 37° C. in serum-free RPMI medium. The samples are analyzed with a fluorescence microplate reader (top or bottom read mode) at Ex/Em=540/620 nm (Cutoff=610 nm).

E. coli endotoxin = test: Detection of endotoxin with Limulus Amebocyte Lysate (LAL) and fluorogenic substrate; format: biochemical; details: Ex/Em=490/525 nm
Protocol: FIG. 5. Illustrates the detection of E. coli endotoxin with an exemplary compound. E. coli endotoxin is measured in a black/solid bottom 96-well plate with Compound 7. The fluorescence intensity is recorded using a Gemini microplate reader at Ex/Em=490/525 nm, cutoff=515 nm. As low as 0.001 EU/mL of E. coli endotoxin can be detected.
Endotoxin is the major component of the outer membrane of Gram-negative bacteria. endotoxin is a potent stimulator of the vertebrate innate immune system and can cause fever, septic shock and eventually death. It is recognized as a biomarker for the detection of bacterial pathogen invasion and is responsible for the development of inflammatory response and endotoxic shock in extreme cases. […] The LAL enzymatic cascade can be activated by endotoxin at pH 6.0 to 7.5, and the amount of activated enzyme present can be measured by its ability to cleave the fluorogenic and/or chromogenic substrate. […] The endotoxin activity is proportional to the fluorescence intensity of rhodamine 110 resulting from the hydrolysis of Compound 7. The concentration of endotoxin in a sample can be calculated from a standard curve. […] The fluorescence intensities of the test sample solutions are recorded with a fluorescence microplate reader at Ex/Em=490/525 nm within 10-30 minutes.

Row | Compound | cleavage of the caspase-3/7 substrate on induction of apoptosis (Caspase 3/7) | lowest detectable E. coli endotoxin (E. coli endotoxin; 96-well plate, cutoff=515 nm) [EU/mL] | fluorescence of hydrolyzed product (rhodamine 110) after hydrolysis by LAL in the presence of endotoxins (E. coli endotoxin; LAL 100 U, 10 uM substrate)
1 | Compound 4 (DVED) | leads to cleavage | – | –
2 | CCC(C)C(NC(C)=O)C(=O)NC(CCC(=O)O)C(=O)NC(C)C(=O)NC(CCCNC(=N)N)C(=O)Nc1ccc2c(c1)Oc1cc(NC(=O)C(CCCNC(=N)N)NC(=O)C(C)NC(=O)C(CCC(=O)O)NC(=O)C(NC(C)=O)C(C)CC)ccc1C21OC(=O)c2ccccc21 (stereo not drawn) [Compound 7] (I: Ac-IEAR / II: Ac-IEAR; linker I:C-II:C via Rhodamine110; configuration not given here) | – | 0.001 | strong green fluorescence
